Assay results taken from PubChem BioAssay AID330 (DTP/NCI, 2004).
“And” between values parts separate entries of the source, which are not always exact repeats. Equal values may be shown once. Toxic doses and inconclusive results are not listed. The calls were made as follows: active = survival T/C of 150% or more; inactive = T/C below 125% in these data.

Test system: P388 leukemia ip, CD2F1 mice, survival T/C
Assay: NCI In Vivo Anticancer Drug Screen. Data for tumor model P388 Leukemia (intraperitoneal) in CD2F1 (CDF1) mice
Details: endpoint: median survival time, higher = longer survival
Procedure, shortened: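 Mice carrying the transplanted tumor received test compound or vehicle. Survival was recorded in each group, and the value is the treated-group measurement divided by that of the vehicle-treated control group.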

[1] = dose: 50.0 mg/kg/injection, schedule: Q01DX009 (ip), vehicle: Klucel (hydroxypropylcellulose) (HPC)
[2] = dose: 50.0 mg/kg/injection, schedule: Q01DX009 (ip), vehicle: saline
[3] = dose: 100.0 mg/kg/injection, schedule: Q01DX009 (ip), vehicle: saline
[4] = dose: 200.0 mg/kg/injection, schedule: Q01DX009 (ip), vehicle: saline
[5] = dose: 100.0 mg/kg/injection, schedule: Q04DX003 (ip), vehicle: Klucel (hydroxypropylcellulose) (HPC)
[6] = dose: 50.0 mg/kg/injection, schedule: Q01DX005 (ip), vehicle: saline with Tween-80
[7] = dose: 100.0 mg/kg/injection, schedule: Q01DX005 (ip), vehicle: saline with Tween-80
[8] = dose: 200.0 mg/kg/injection, schedule: Q01DX005 (ip), vehicle: saline with Tween-80
[9] = dose: 60.0 mg/kg/injection, schedule: Q01DX005 (ip), vehicle: saline with Tween-80
[10] = dose: 120.0 mg/kg/injection, schedule: Q01DX005 (ip), vehicle: saline with Tween-80
[11] = dose: 4.0 mg/kg/injection, schedule: Q01DX009 (ip), vehicle: saline
[12] = dose: 8.0 mg/kg/injection, schedule: Q01DX009 (ip), vehicle: saline
[13] = dose: 16.0 mg/kg/injection, schedule: Q01DX009 (ip), vehicle: saline
[14] = dose: 32.0 mg/kg/injection, schedule: Q01DX009 (ip), vehicle: saline

Measured: T/C

O=C(CBr)N1c2ccccc2S(=O)(=O)c2ccc3ccccc3c21
inactive: [1] 116 % of control and 122 % of control | dose: 200.0 mg/kg/injection, schedule: Q01DX009 (ip), vehicle: Klucel (hydroxypropylcellulose) (HPC) 119 % of control

O=C1CCC(CCl)(C(=O)O)O1 (configuration not stated)
inactive: [2] 106 % of control | [3] 106 % of control | [4] 91 % of control

COc1ccc(-c2csc(N)n2)cc1OC
inactive: [5] 98 % of control | dose: 200.0 mg/kg/injection, schedule: Q04DX003 (ip), vehicle: Klucel (hydroxypropylcellulose) (HPC) 101 % of control | dose: 400.0 mg/kg/injection, schedule: Q04DX003 (ip), vehicle: Klucel (hydroxypropylcellulose) (HPC) 102 % of control

N#Cc1cnc2n(c1=N)CCCCC2
inactive: dose: 25.0 mg/kg/injection, schedule: Q04DX003 (ip), vehicle: Klucel (hydroxypropylcellulose) (HPC) 102 % of control | dose: 50.0 mg/kg/injection, schedule: Q04DX003 (ip), vehicle: Klucel (hydroxypropylcellulose) (HPC) 94 % of control | [5] 102 % of control

N#CCCN(CCC#N)Cc1c(O)ccc2ccccc12
inactive: [6] 104 % of control | [7] 114 % of control | [8] 117 % of control

O=C(CCS(=O)(=O)CCC(=O)c1ccco1)c1ccco1
inactive: dose: 100.0 mg/kg/injection, schedule: Q04DX003 (ip), vehicle: saline 94 % of control | dose: 200.0 mg/kg/injection, schedule: Q04DX003 (ip), vehicle: saline 94 % of control | dose: 400.0 mg/kg/injection, schedule: Q04DX003 (ip), vehicle: saline 90 % of control

CCN(CCO)CC(O)Cn1cnc2c(N)ncnc21 (configuration not stated)
inactive: dose: 60.0 mg/kg/injection, schedule: Q01DX005 (ip), vehicle: Klucel (hydroxypropylcellulose) (HPC) 95 % of control | dose: 120.0 mg/kg/injection, schedule: Q01DX005 (ip), vehicle: Klucel (hydroxypropylcellulose) (HPC) 94 % of control | dose: 240.0 mg/kg/injection, schedule: Q01DX005 (ip), vehicle: Klucel (hydroxypropylcellulose) (HPC) 97 % of control

CCOc1ccc2c(N=[N+]=[N-])cc(C)nc2c1
inactive: dose: 30.0 mg/kg/injection, schedule: Q01DX005 (ip), vehicle: saline with Tween-80 94 % of control | [9] 103 % of control and 91 % of control | [10] 92 % of control

CN1c2c(C(=O)Nc3nccs3)nn(-c3ccccc3)c2-c2ccccc2S1(=O)=O
inactive: dose: 50.0 mg/kg/injection, schedule: Q01DX005 (ip), vehicle: saline 89 % of control | dose: 100.0 mg/kg/injection, schedule: Q01DX005 (ip), vehicle: saline 92 % of control | dose: 200.0 mg/kg/injection, schedule: Q01DX005 (ip), vehicle: saline 99 % of control

COC(=O)/C(C#N)=C(/SC)N(C)C
inactive: dose: 12.5 mg/kg/injection, schedule: Q01DX009 (ip), vehicle: saline with Tween-80 104 % of control | dose: 25.0 mg/kg/injection, schedule: Q01DX009 (ip), vehicle: saline with Tween-80 104 % of control | dose: 50.0 mg/kg/injection, schedule: Q01DX009 (ip), vehicle: saline with Tween-80 102 % of control and 109 % of control | dose: 100.0 mg/kg/injection, schedule: Q01DX009 (ip), vehicle: saline with Tween-80 103 % of control

CCOC(=O)C1CC1(C(=O)OCC)C(=O)OCC (configuration not stated)
inactive: dose: 100.0 mg/kg/injection, schedule: Q04DX003 (ip), vehicle: saline with Tween-80 96 % of control | dose: 200.0 mg/kg/injection, schedule: Q04DX003 (ip), vehicle: saline with Tween-80 97 % of control | dose: 400.0 mg/kg/injection, schedule: Q04DX003 (ip), vehicle: saline with Tween-80 92 % of control

CC1=CC2(C)C3C=C(C)C(C2C(=O)C1=O)C(C)(O)C3=O (configuration not stated)
inactive: [6] 97 % of control | [7] 106 % of control | [8] 106 % of control

CCc1nc2c(cnn2C)c(=O)n1-c1ccccc1
inactive: dose: 50.0 mg/kg/injection, schedule: Q01DX005 (ip), vehicle: Klucel (hydroxypropylcellulose) (HPC) 101 % of control | dose: 100.0 mg/kg/injection, schedule: Q01DX005 (ip), vehicle: Klucel (hydroxypropylcellulose) (HPC) 100 % of control | dose: 200.0 mg/kg/injection, schedule: Q01DX005 (ip), vehicle: Klucel (hydroxypropylcellulose) (HPC) 96 % of control

Cc1[nH]c2c(ccc3c2ccc2c(=O)c(Cl)c(C)[nH]c23)c(=O)c1Cl
inactive: [6] 96 % of control | [7] 95 % of control | [8] 94 % of control

O=C(O)CP(=O)(O)O
inactive: [11] 94 % of control | dose: 6.25 mg/kg/injection, schedule: Q01DX009 (ip), vehicle: saline 100 % of control | [12] 99 % of control | dose: 12.5 mg/kg/injection, schedule: Q01DX009 (ip), vehicle: saline 101 % of control | [13] 91 % of control | dose: 25.0 mg/kg/injection, schedule: Q01DX009 (ip), vehicle: saline 106 % of control | [14] 100 % of control | [2] 103 % of control | dose: 64.0 mg/kg/injection, schedule: Q01DX009 (ip), vehicle: saline 102 % of control | [3] 103 % of control | dose: 128.0 mg/kg/injection, schedule: Q01DX009 (ip), vehicle: saline 94 % of control | [4] 106 % of control | dose: 400.0 mg/kg/injection, schedule: Q01DX009 (ip), vehicle: saline 101 % of control | dose: 800.0 mg/kg/injection, schedule: Q01DX009 (ip), vehicle: saline 106 % of control

CC(C)c1cccc(C(C)C)c1NC(=O)Nc1ccc(Cl)cc1Cl
inactive: [9] 114 % of control | [10] 104 % of control | dose: 240.0 mg/kg/injection, schedule: Q01DX005 (ip), vehicle: saline with Tween-80 116 % of control

CCNC(=O)CCC(NS(=O)(=O)c1ccc(NC(=O)c2ccc(Cl)cc2)cc1)C(=O)O (configuration not stated)
inactive: [6] 107 % of control | [7] 104 % of control | [8] 102 % of control

O=c1c2ccccc2ncn1-c1ccc(O)c(CN(CCCl)CCCl)c1
inactive: dose: 100.0 mg/kg/injection, schedule: Q01DX001 (ip), vehicle: saline with Tween-80 101 % of control | dose: 200.0 mg/kg/injection, schedule: Q01DX001 (ip), vehicle: saline with Tween-80 97 % of control | dose: 400.0 mg/kg/injection, schedule: Q01DX001 (ip), vehicle: saline with Tween-80 93 % of control

CC(=O)Nc1ccc(S(=O)(=O)NCCSS(=O)(=O)O)cc1
inactive: [6] 101 % of control | [7] 109 % of control | [8] 109 % of control

CCN(CC)Sc1cccc([N+](=O)[O-])c1
inactive: dose: 12.5 mg/kg/injection, schedule: Q01DX009 (ip), vehicle: Klucel (hydroxypropylcellulose) (HPC) 108 % of control | dose: 25.0 mg/kg/injection, schedule: Q01DX009 (ip), vehicle: Klucel (hydroxypropylcellulose) (HPC) 118 % of control | [1] 113 % of control and 119 % of control

CC(=O)OC(C(=O)O)C(OC(C)=O)C(OC(C)=O)C(=O)O (configuration not stated)
inactive: [2] 98 % of control | [3] 101 % of control | [4] 95 % of control

Cc1c(N)nc(C(CC(N)=O)NCC(N)C(N)=O)nc1C(=O)NC(C(=O)NC(C)C(O)C(C)C(=O)NC(C(=O)NCCc1nc(-c2nc(C(=O)NCCCNCCCc3ccccn3)cs2)cs1)C(C)O)C(OC1OC(CO)C(O)C(O)C1OC1OC(CO)C(O)C(OC(N)=O)C1O)c1cnc[nH]1 (configuration not stated)
inactive: dose: 0.25 mg/kg/injection, schedule: Q01DX009 (ip), vehicle: water 110 % of control | dose: 0.5 mg/kg/injection, schedule: Q01DX009 (ip), vehicle: water 104 % of control | dose: 1.0 mg/kg/injection, schedule: Q01DX009 (ip), vehicle: water 111 % of control | dose: 2.0 mg/kg/injection, schedule: Q01DX009 (ip), vehicle: water 101 % of control | [11] 104 % of control | [12] 104 % of control | [13] 112 % of control | [14] 105 % of control
